Activity calls are given as the source filed them. The rule behind the calls is not given here.
Molecular target: Serine/threonine-protein kinase mTOR (Homo sapiens) (UniProt P42345)
Test: binders of mTOR FRB domain, biophysical, NMR (AID 1648)
Conditions: NMR binding to FRB domain, chemical shift

Chain of Serine/threonine-protein kinase mTOR (Homo sapiens) (P42345 2015-2114): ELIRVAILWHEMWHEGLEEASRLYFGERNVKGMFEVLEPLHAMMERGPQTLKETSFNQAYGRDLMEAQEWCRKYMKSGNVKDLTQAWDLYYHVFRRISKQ

With CC(C)n1nnc2cc(C(=O)O)ccc21 as the compound, how does the Kd read?
Its Kd is > 4 mM (inactive).

How did the Kd turn out when O=C(O)C1CCCN1Cc1c[nH]c2ccccc12 (stereo not given) was run?
The Kd was > 4 mM (inactive).

With Cc1ccnc(NS(=O)(=O)c2cccs2)c1 as the compound, how does the Kd read?
Its Kd is > 4 mM (inactive).

CC(=O)O[C@H]1C[C@@H](OC(C)=O)C(C)(C)C2C[C@@H](OC(C)=O)[C@]3(C)C(CC[C@@]4(C)[C@H](c5ccoc5)C(=O)[C@H]5O[C@]543)[C@]21C (stereo not given in full) was tested. Which Kd did it give?
The Kd was > 4 mM (inactive).

For O=c1c(O)c(-c2ccc(O)cc2O)oc2cc(O)cc(O)c12, which Kd is on record?
Its Kd is > 4 mM (inactive).

With Cc1cc2c(N)cccc2nn1 as the compound, how does the Kd read?
Its Kd is > 4 mM (inactive).

How did the Kd turn out when O=c1cc(-c2ccccc2)oc2cc(O)c(O)c(O)c12 was run?
The Kd was > 4 mM (inactive).

With COc1c(-c2coc3cc4c(cc3c2=O)CC(O)C(C)(C)O4)ccc2c1C=CC(C)(C)O2 (stereo not given) as the compound, how does the Kd read?
Its Kd is > 4 mM (inactive).

How did the Kd turn out when O=C1CC(NCc2ccco2)C(=O)NN1 (stereo not given) was run?
The Kd was > 4 mM (inactive).

For N/N=C1\CCCc2c1no[n+]2[O-], which Kd is on record?
The Kd was > 4 mM (inactive).

FC(F)(F)c1nnc2ccc(N3CCOCC3)nn12 was tested. Which Kd did it give?
The Kd was > 4 mM (inactive).

How did the Kd turn out when O=C(O)c1cc(F)cc2c1OCOC2 was run?
Its Kd is > 4 mM (inactive).

For Cc1ccc2[nH]cc(CCN)c2c1, which Kd is on record?
The Kd was > 4 mM (inactive).

O=C(O)c1ccc2nccnc2c1 was tested. Which Kd did it give?
Its Kd is > 4 mM (inactive).

With O=C(NCc1ccccc1Br)c1ccco1 as the compound, how does the Kd read?
Its Kd is > 4 mM (inactive).

With NC(=O)CN=Cc1c(O)[nH]c2ccccc12 as the compound, how does the Kd read?
Its Kd is > 4 mM (inactive).

Which Kd does the source give for CCSc1nc(C)c(CC)c(C)c1C(N)=O here?
Its Kd is > 4 mM (inactive).

For Oc1ccc(-c2n[nH]c(=S)n2Cc2ccco2)cc1, which Kd is on record?
Its Kd is > 4 mM (inactive).

Which Kd does the source give for Nc1nc2ccc(S(N)(=O)=O)cc2s1 here?
Its Kd is > 4 mM (inactive).

How did the Kd turn out when [O-][n+]1onc2c1CCc1c-2nc(-c2ccccc2)n1O was run?
The Kd was > 4 mM (inactive).

With N#Cc1sc2nc3c(c(-c4cccnc4)c2c1N)CCC3 as the compound, how does the Kd read?
The Kd was > 4 mM (inactive).

For O=C(O)c1snnc1-c1ccccc1, which Kd is on record?
The Kd was > 4 mM (inactive).

N#Cc1cccc(Cn2nnc(-c3ccccc3)n2)c1 was tested. Which Kd did it give?
The Kd was > 4 mM (inactive).

COCCn1c(N)nc2c1c(=O)[nH]c(=O)n2C was tested. Which Kd did it give?
The Kd was > 4 mM (inactive).

For COc1cccc(NC(=O)c2ncn[nH]2)c1, which Kd is on record?
The Kd was > 4 mM (inactive).

How did the Kd turn out when COc1ccccc1NS(=O)(=O)c1c[nH]c(=O)[nH]c1=O was run?
The Kd was > 4 mM (inactive).

For O=c1[nH]cc(Nc2ccccc2)c(=O)[nH]1, which Kd is on record?
Its Kd is > 4 mM (inactive).

How did the Kd turn out when Nc1nnc(SCc2ccc(F)cc2)s1 was run?
Its Kd is > 4 mM (inactive).

With CC(C)Oc1ccc(C2CC(=O)NNC2=O)cc1 (stereo not given) as the compound, how does the Kd read?
The Kd was > 4 mM (inactive).

How did the Kd turn out when Cc1ccc2cc(N)ccc2n1 was run?
The Kd was > 4 mM (inactive).

Nc1ccc(-c2cn3c(n2)SCC3)cc1 was tested. Which Kd did it give?
Its Kd is > 4 mM (inactive).

For CN=C(c1ccc([N+](=O)[O-])cc1)N(C)C, which Kd is on record?
The Kd was > 4 mM (inactive).

How did the Kd turn out when Cc1cc(C(=O)NCc2cccs2)cs1 was run?
The Kd was > 4 mM (inactive).

COc1ccc2ccc(=O)oc2c1CC=C(C)C was tested. Which Kd did it give?
The Kd was > 4 mM (inactive).

With CSc1ncnc2nc[nH]c12 as the compound, how does the Kd read?
The Kd was > 4 mM (inactive).

CC(=O)Nc1cccc(-c2nnc3n2CC(C)S3)c1 (stereo not given) was tested. Which Kd did it give?
The Kd was > 4 mM (inactive).

With O=C(c1cccs1)N1CCCc2ccccc21 as the compound, how does the Kd read?
Its Kd is > 4 mM (inactive).

How did the Kd turn out when CC(=O)O[C@H]1CC[C@@]2(C)C(CC[C@]3(C)C2C(=O)C=C2C4[C@@H](C)[C@H](C)CC[C@]4(C(=O)O)CC[C@]23C)C1(C)C (stereo not given in full) was run?
The Kd was > 4 mM (inactive).

How did the Kd turn out when O=C(O)c1cc(O)c2c(c1)[C@@H]([C@H]1c3cc(C(=O)O)cc(O)c3C(=O)c3c(O[C@H]4O[C@H](CO)[C@@H](O)[C@H](O)[C@H]4O)cccc31)c1cccc(O[C@H]3O[C@H](CO)[C@@H](O)[C@H](O)[C@H]3O)c1C2=O was run?
Its Kd is > 4 mM (inactive).

CC(=O)O[C@@H]1CC2C(C)(C)C(=O)[C@@H]3O[C@@H]3[C@]2(C)C2CC[C@]3(C)C(=CC(=O)O[C@H]3c3ccoc3)[C@@]21C (stereo not given in full) was tested. Which Kd did it give?
The Kd was > 4 mM (inactive).

Which Kd does the source give for CC1(C)C2CC(=O)[C@]3(C)C(CC[C@@]4(C)[C@H](c5ccoc5)OC(=O)[C@H]5O[C@]543)[C@@]2(C)C=C[C@@H]1O (stereo not given in full) here?
The Kd was > 4 mM (inactive).

Which Kd does the source give for CCOc1ccc2nc(NS(C)(=O)=O)sc2c1 here?
Its Kd is > 4 mM (inactive).

NS(=O)(=O)c1ccc(NC(=O)/C=C\C(=O)O)cc1 was tested. Which Kd did it give?
Its Kd is > 4 mM (inactive).

O=C(O)c1cn(-c2ccccc2)nc1-c1ccncc1 was tested. Which Kd did it give?
The Kd was > 4 mM (inactive).

For O=C(Nn1cnnc1)c1cc2c(s1)CCCC2, which Kd is on record?
Its Kd is > 4 mM (inactive).

How did the Kd turn out when CC1(C)Cc2nc3n[nH]c(N)c3cc2CO1 was run?
The Kd was > 4 mM (inactive).

For OC1COCc2nc3ccccc3n2C1 (stereo not given), which Kd is on record?
Its Kd is > 4 mM (inactive).

How did the Kd turn out when Cc1nnc(NC(=O)C(C)Sc2nncn2C)s1 (stereo not given) was run?
The Kd was > 4 mM (inactive).

Cn1c(=O)c2[nH]cnc2n(-c2ccccc2)c1=O was tested. Which Kd did it give?
The Kd was > 4 mM (inactive).

Which Kd does the source give for Cc1nnc(NCCN2CCOCC2)[nH]c1=O here?
Its Kd is > 4 mM (inactive).

With COC(=O)CCSCC(=O)Nc1nccs1 as the compound, how does the Kd read?
The Kd was > 4 mM (inactive).

Which Kd does the source give for O=C1C=CC(=O)N1c1ccccc1O here?
The Kd was > 4 mM (inactive).

For CS(=O)(=O)Cc1ccccc1, which Kd is on record?
Its Kd is > 4 mM (inactive).

Cc1cc(OC(=O)c2c(C)cc(O)cc2O)cc(O)c1C(=O)O was tested. Which Kd did it give?
Its Kd is > 4 mM (inactive).

How did the Kd turn out when COc1ccc2c(c1OC)C(=O)O[C@@H]2[C@@H]1c2cc3c(cc2CCN1C)OCO3 was run?
Its Kd is > 4 mM (inactive).

CC(=O)Nc1nc(-c2cccs2)cs1 was tested. Which Kd did it give?
Its Kd is > 4 mM (inactive).

Which Kd does the source give for Cc1nnc(N2CCN(c3ccccc3)CC2)[nH]c1=O here?
The Kd was > 4 mM (inactive).

For O=c1c2ccccc2oc2ccccc12, which Kd is on record?
Its Kd is > 4 mM (inactive).

With CN1C(=O)N(C)C2NC(=O)NC21 (stereo not given) as the compound, how does the Kd read?
The Kd was > 4 mM (inactive).

Which Kd does the source give for Cc1nc2sccn2c1C(=O)O here?
The Kd was > 4 mM (inactive).

COc1cc(N)ccc1NC(=O)c1cccs1 was tested. Which Kd did it give?
Its Kd is > 4 mM (inactive).

Which Kd does the source give for CS(=O)(=O)N/N=C/c1cccs1 here?
Its Kd is > 4 mM (inactive).

For CC(O)C(=O)N/N=C/c1cccs1 (stereo not given), which Kd is on record?
Its Kd is > 4 mM (inactive).

Which Kd does the source give for Cc1nc2[nH]onc2c2nccc(=O)c12 here?
Its Kd is > 4 mM (inactive).

How did the Kd turn out when Nc1nnc(SCc2ccccc2Cl)s1 was run?
Its Kd is > 4 mM (inactive).

For O=C(Nc1nccs1)c1ccc(=O)[nH]n1, which Kd is on record?
Its Kd is > 4 mM (inactive).

Which Kd does the source give for O=C(NCC1CCNCC1)c1ccncc1 here?
The Kd was > 4 mM (inactive).

With CNCc1ccco1 as the compound, how does the Kd read?
The Kd was > 4 mM (inactive).

For NCc1ccc2c(c1)OCCO2, which Kd is on record?
The Kd was > 4 mM (inactive).

With Cc1ccc2cc(C(=O)O)ccc2n1 as the compound, how does the Kd read?
The Kd was > 4 mM (inactive).

For CC(=O)NC(c1ccccc1)c1cccnc1 (stereo not given), which Kd is on record?
The Kd was > 4 mM (inactive).

For NC(=O)c1sc2ccccc2c1Cl, which Kd is on record?
Its Kd is > 4 mM (inactive).

For Cc1ccc2c(c1)CC[C@H]1CC(=O)CC[C@]21C, which Kd is on record?
Its Kd is > 4 mM (inactive).

How did the Kd turn out when CC(=O)Nc1ccc2c(c1)CCCC2=O was run?
The Kd was > 4 mM (inactive).

O=C(Nc1c[nH]c(=O)[nH]c1=O)c1cccs1 was tested. Which Kd did it give?
Its Kd is > 4 mM (inactive).

How did the Kd turn out when Cn1cnc2c(Cl)ncnc21 was run?
Its Kd is > 4 mM (inactive).

O=C(NC(=S)NC1CCS(=O)(=O)C1)c1ccccc1 (stereo not given) was tested. Which Kd did it give?
Its Kd is > 4 mM (inactive).

How did the Kd turn out when Nc1nc(-c2ccncc2)cs1 was run?
Its Kd is > 4 mM (inactive).

Nc1cccc(C(=O)Nc2ccc(N)cc2Cl)c1 was tested. Which Kd did it give?
The Kd was > 4 mM (inactive).

Which Kd does the source give for Cn1c(CSc2nc3ccccc3s2)n[nH]c1=S here?
The Kd was > 4 mM (inactive).

For Cn1nnc2cc(CN)ccc21, which Kd is on record?
The Kd was > 4 mM (inactive).

CC(C)Oc1ccc(NC(N)=O)cc1 was tested. Which Kd did it give?
The Kd was > 4 mM (inactive).

Which Kd does the source give for CC(=O)Nc1ccc(S(=O)(=O)NCC2CCCO2)cc1 (stereo not given) here?
The Kd was > 4 mM (inactive).

OCc1cccc2c1OCO2 was tested. Which Kd did it give?
The Kd was > 4 mM (inactive).

How did the Kd turn out when Nc1ncnc2c1ncn2C1C[C@H](O)[C@@H](CO)O1 (stereo not given in full) was run?
The Kd was > 4 mM (inactive).

Reference: PubChem BioAssay AID1648 (Sanford-Burnham Center for Chemical Genomics, 2009)
